Assay: Blood pressure, 24-h telemetric method, normotensive rats
Type: in vivo, rat
Conditions: telemetry, 5 mg/kg
Method: The blood pressure of rats treated with the tested compound was measured for a 24 h period after ip treatment (5 mg/kg b.w.) with a special telemetric system Stellar (TSE-Systems, Germany).
Surgery: The operation was carried out over 30 min under sterile conditions. Rats were anaesthetized with ketamine and xylasine (intramuscular injection: 100 mg/kg and 10 mg/kg). Before surgery and for 7 days after, the animals were also treated with cefuroxime (20 mg/kg/day) via intramuscular injection and ketoprofen (5 mg/kg/day) via ip injection. […] The transmitter was sutured to the peritoneal cavity.
The rats were individually caged for 2 weeks to heal after surgical cut. The animals were then placed in pairs in cages to reduce their isolation stress. Blood pressure was measured: before ip administration of the compounds – time 0 min and 24 h thereafter.

[1] = after first administration, time 1, n 6
[2] = after first administration, time 1.25, n 6
[3] = after first administration, time 1.5, n 6
[4] = after first administration, time 1.75, n 6
[5] = after first administration, time 2, n 6
[6] = after first administration, time 3, n 6
[7] = after first administration, time 4, n 6
[8] = after first administration, time 5, n 6
[9] = after first administration, time 6, n 6
[10] = after first administration, time 7, n 6
[11] = after first administration, time 8, n 6
[12] = after first administration, time 9, n 6
[13] = after first administration, time 10, n 6
[14] = after first administration, time 11, n 6
[15] = after first administration, time 12, n 6
[16] = after first administration, time 13, n 6
[17] = after first administration, time 14, n 6
[18] = after first administration, time 15, n 6
[19] = after first administration, time 16, n 6
[20] = after first administration, time 17, n 6
[21] = after first administration, time 18, n 6
[22] = after first administration, time 19, n 6
[23] = after first administration, time 20, n 6
[24] = after first administration, time 21, n 6
[25] = after first administration, time 22, n 6
[26] = after first administration, time 23, n 6
[27] = after first administration, time 24, n 6
[28] = after forteenth administration, time 0, n 6
[29] = after forteenth administration, time 0.25, n 6
[30] = after seventh administration, time 0, n 6
[31] = after seventh administration, time 0.25, n 6
[32] = after seventh administration, time 0.5, n 6
[33] = after seventh administration, time 0.75, n 6
[34] = after seventh administration, time 1, n 6
[35] = after seventh administration, time 1.25, n 6
[36] = after seventh administration, time 1.5, n 6
[37] = after seventh administration, time 1.75, n 6
[38] = after seventh administration, time 2, n 6
[39] = after seventh administration, time 3, n 6
[40] = after seventh administration, time 4, n 6
[41] = after seventh administration, time 5, n 6
[42] = after seventh administration, time 6, n 6
[43] = after seventh administration, time 7, n 6
[44] = after seventh administration, time 8, n 6
[45] = after seventh administration, time 9, n 6
[46] = after seventh administration, time 10, n 6
[47] = after seventh administration, time 11, n 6
[48] = after seventh administration, time 12, n 6
[49] = after seventh administration, time 13, n 6
[50] = after seventh administration, time 14, n 6
[51] = after seventh administration, time 15, n 6
[52] = after seventh administration, time 16, n 6
[53] = after seventh administration, time 17, n 6
[54] = after seventh administration, time 18, n 6
[55] = after seventh administration, time 19, n 6
[56] = after seventh administration, time 20, n 6
[57] = after seventh administration, time 21, n 6
[58] = after seventh administration, time 22, n 6
[59] = after seventh administration, time 23, n 6
[60] = after seventh administration, time 24, n 6

SMILES: N=C(N)N/N=C/c1c(Cl)cc(O)cc1Cl [4HOGuanabenz]
- diastolic pressure, mean [1]: 81.38 mmHg
- systolic pressure, mean [1]: 117.3 mmHg
- diastolic pressure, mean [2]: 76.88 mmHg
- systolic pressure, mean [2]: 111 mmHg
- diastolic pressure, mean [3]: 75.13 mmHg
- systolic pressure, mean [3]: 106 mmHg
- diastolic pressure, mean [4]: 80.13 mmHg
- systolic pressure, mean [4]: 112.4 mmHg
- diastolic pressure, mean [5]: 74.63 mmHg
- systolic pressure, mean [5]: 107 mmHg
- diastolic pressure, mean [6]: 78.75 mmHg
- systolic pressure, mean [6]: 110.8 mmHg
- diastolic pressure, mean [7]: 68.75 mmHg
- systolic pressure, mean [7]: 107.9 mmHg
- diastolic pressure, mean [8]: 80.88 mmHg
- systolic pressure, mean [8]: 114.1 mmHg
- diastolic pressure, mean [9]: 78 mmHg
- systolic pressure, mean [9]: 111.6 mmHg
- diastolic pressure, mean [10]: 71 mmHg
- systolic pressure, mean [10]: 111.1 mmHg
- diastolic pressure, mean [11]: 72.75 mmHg
- systolic pressure, mean [11]: 110.8 mmHg
- diastolic pressure, mean [12]: 77.88 mmHg
- systolic pressure, mean [12]: 114.6 mmHg
- diastolic pressure, mean [13]: 77.63 mmHg
- systolic pressure, mean [13]: 114.9 mmHg
- diastolic pressure, mean [14]: 70.75 mmHg
- systolic pressure, mean [14]: 107.6 mmHg
- diastolic pressure, mean [15]: 80.25 mmHg
- systolic pressure, mean [15]: 121.9 mmHg
- diastolic pressure, mean [16]: 74.5 mmHg
- systolic pressure, mean [16]: 114.9 mmHg
- diastolic pressure, mean [17]: 81.88 mmHg
- systolic pressure, mean [17]: 122.6 mmHg
- diastolic pressure, mean [18]: 71.63 mmHg
- systolic pressure, mean [18]: 109.4 mmHg
- diastolic pressure, mean [19]: 72.75 mmHg
- systolic pressure, mean [19]: 108.4 mmHg
- diastolic pressure, mean [20]: 76.75 mmHg
- systolic pressure, mean [20]: 112.6 mmHg
- diastolic pressure, mean [21]: 78.75 mmHg
- systolic pressure, mean [21]: 115.3 mmHg
- diastolic pressure, mean [22]: 79.5 mmHg
- systolic pressure, mean [22]: 117.3 mmHg
- diastolic pressure, mean [23]: 77 mmHg
- systolic pressure, mean [23]: 117.8 mmHg
- diastolic pressure, mean [24]: 76.63 mmHg
- systolic pressure, mean [24]: 117.8 mmHg
- diastolic pressure, mean [25]: 71.5 mmHg
- systolic pressure, mean [25]: 109.5 mmHg
- diastolic pressure, mean [26]: 73.38 mmHg
- systolic pressure, mean [26]: 109.5 mmHg
- diastolic pressure, mean [27]: 77.63 mmHg
- systolic pressure, mean [27]: 114.3 mmHg
- diastolic pressure, mean [28]: 70.25 mmHg
- systolic pressure, mean [28]: 110.5 mmHg
- diastolic pressure, mean [29]: 90.75 mmHg
- systolic pressure, mean [29]: 139.3 mmHg
- diastolic pressure, mean [30]: 74.83 mmHg
- systolic pressure, mean [30]: 108.2 mmHg
- diastolic pressure, mean [31]: 97.5 mmHg
- systolic pressure, mean [31]: 141.8 mmHg
- diastolic pressure, mean [32]: 76.75 mmHg
- systolic pressure, mean [32]: 114.3 mmHg
- diastolic pressure, mean [33]: 77.5 mmHg
- systolic pressure, mean [33]: 111.5 mmHg
- diastolic pressure, mean [34]: 76.75 mmHg
- systolic pressure, mean [34]: 109.3 mmHg
- diastolic pressure, mean [35]: 74.25 mmHg
- systolic pressure, mean [35]: 106.8 mmHg
- diastolic pressure, mean [36]: 74 mmHg
- systolic pressure, mean [36]: 107.3 mmHg
- diastolic pressure, mean [37]: 70.75 mmHg
- systolic pressure, mean [37]: 102 mmHg
- diastolic pressure, mean [38]: 67.25 mmHg
- systolic pressure, mean [38]: 100.5 mmHg
- diastolic pressure, mean [39]: 74 mmHg
- systolic pressure, mean [39]: 109 mmHg
- diastolic pressure, mean [40]: 74.75 mmHg
- systolic pressure, mean [40]: 109.3 mmHg
- diastolic pressure, mean [41]: 74.25 mmHg
- systolic pressure, mean [41]: 110.3 mmHg
- diastolic pressure, mean [42]: 79.75 mmHg
- systolic pressure, mean [42]: 113.8 mmHg
- diastolic pressure, mean [43]: 70.5 mmHg
- systolic pressure, mean [43]: 113.3 mmHg
- diastolic pressure, mean [44]: 78.75 mmHg
- systolic pressure, mean [44]: 116.3 mmHg
- diastolic pressure, mean [45]: 75.5 mmHg
- systolic pressure, mean [45]: 119.5 mmHg
- diastolic pressure, mean [46]: 65.5 mmHg
- systolic pressure, mean [46]: 106 mmHg
- diastolic pressure, mean [47]: 75.75 mmHg
- systolic pressure, mean [47]: 117.3 mmHg
- diastolic pressure, mean [48]: 65.5 mmHg
- systolic pressure, mean [48]: 116.8 mmHg
- diastolic pressure, mean [49]: 79.25 mmHg
- systolic pressure, mean [49]: 121.5 mmHg
- diastolic pressure, mean [50]: 74 mmHg
- systolic pressure, mean [50]: 111.5 mmHg
- diastolic pressure, mean [51]: 77.25 mmHg
- systolic pressure, mean [51]: 113.3 mmHg
- diastolic pressure, mean [52]: 71.5 mmHg
- systolic pressure, mean [52]: 107.3 mmHg
- diastolic pressure, mean [53]: 79 mmHg
- systolic pressure, mean [53]: 122.3 mmHg
- diastolic pressure, mean [54]: 77 mmHg
- systolic pressure, mean [54]: 117.5 mmHg
- diastolic pressure, mean [55]: 77 mmHg
- systolic pressure, mean [55]: 120.5 mmHg
- diastolic pressure, mean [56]: 76.25 mmHg
- systolic pressure, mean [56]: 122.3 mmHg
- diastolic pressure, mean [57]: 69.25 mmHg
- systolic pressure, mean [57]: 110 mmHg
- diastolic pressure, mean [58]: 68 mmHg
- systolic pressure, mean [58]: 108 mmHg
- diastolic pressure, mean [59]: 63.75 mmHg
- systolic pressure, mean [59]: 107 mmHg
- diastolic pressure, mean [60]: 67.5 mmHg
- systolic pressure, mean [60]: 105 mmHg

Reference: PMC10539439 (Pharmacological Reports, 2023)
